The values that follow are results of earlier work, collected in publication PMC10998826 (EJNMMI Research, 2024).

For this data set the following is noted: active metabolite of sacubitril; cited from earlier work. As to the method:
Sacubitril (AHU377) is a potent inhibitor of the NEP. The combination of sacubitril and the angiotensin-receptor blocker valsartan (Entresto®) is effective in reducing the risks of death and of hospitalization for heart failure and is approved for this indication in numerous countries. The highest blood plasma concentration of its active metabolite, LBQ657, is measured around two hours after oral intake.

As for `C[C@H](C[C@@H](Cc1ccc(-c2ccccc2)cc1)NC(=O)CCC(=O)O)C(=O)O` [LBQ657], the “Time of highest blood plasma concentration after oral intake” value is listed as “around two”.
